Experimental data taken from patent EP2228050A1, “Use of gamma-aminobutyric acid as a depigmenting agent” (priority 2009, dated 2010).
Several values for one entry are separate records, joined by “and”; a condition that tells them apart may be missing. Equal entries are not always repeated. Where two headings read alike, the source gives them in different places.

Tests used:
[1] = system: mélanocytes humains normaux; test: Cytotoxicity: viability of melanocytes by spectrophotometric assay of intracellular phosphatase activity (p-nitrophenyl phosphate, 405 nm)
Method: On effectue la détermination sur des mélanocytes humains normaux obtenus à partir d'un sujet jeune (4 ans). Pour les réalisations des essais, les cellules ont été cultivées jusqu'à l'obtention de mono couches confluentes.
Les cellules ont mises en incubation pendant 72 heures en l'absence (essai témoin) ou en présence de concentrations croissantes de composé E ou de chacun des produits essayés. Pour le composé E, on a essayé des concentrations de 0.003; 0.03; 0.075; 0.15; 0.5; 0.75; 1.5 et 3% (v/v) et pour le produit selon l'invention : 0.01; 0.1; 0.25; 0.5; 1; 2.5; 5; 10% (v/v).
A titre de comparaison, on a préparé une solution à 10% d'acide kojique et une solution d'acide lactique à 30% (composition E).
Les préparations essayées ont été ensuite diluées directement dans le milieu d'incubation des mélanocytes.
A la fin de la période d'incubation, la viabilité des cellules a été évaluée par une méthode spectrophotométrique de dosage de l'activité des phosphatases intracellulaires.
Selon la méthode de Yan T. et al. (Anal. Biochem. 24 (1996) 103-108), on dose le p-nitrophénol résultant de la transformation du phosphate de p-nitrophényle par les phosphatases intra-cellulaires des cellules viables.
L'absorbance du p-nitrophénol libéré à 405 nm est directement proportionnelle au nombre des cellules viables présentes dans le puits de culture.

[2] = system: mélanocytes humains normaux; test: Melano-modulating effect: intracellular melanin / protein ratio in monolayer melanocytes (step 1 single actives, step 2 complex); format: cell-based; conditions: 72 h
Method: Ces essais ont été menés sur un modèle de mélanocytes humains normaux cultivés en mono couche.
Les mélanocytes humains normaux ont été mis en incubation pendant 72 heures en l'absence (témoin) ou en présence d'un produit de référence (acide kojique 250 µM)) ou de concentrations croissantes des produits actifs essayés.
Dans cette méthode, on dose le rapport mélanine/protéines en pourcentage du témoin. On a déterminé également les valeurs obtenues avec le solvant seul et une solution d'acide kojique à 250 µM dans ce solvant(DMSO) pris comme substance de référence.
Tableau II Véhicule (DMSO) et produit de référence
On a utilisé des mélanocytes humains normaux issus d'un sujet jeune âgé de 4 ans. On les a cultivé en monocouche jusqu'à confluence de 80%.
On a employé comme inhibiteur de tyrosinase de référence, l'acide kojique à 250 µM.
Les mélanocytes ont été mis en incubation pendant 72 heures à 37°C sous atmosphère humide et sous 5% de CO2 en l'absence (témoin) ou en présence d'acide kojique ou de concentrations croissantes de principes actifs à l'essai (0.1; 0.5 1%)
A la fin de la période d'incubation, le contenu intracellulaire en mélanine a été quantifié après lyse cellulaire par mesure spectrophotométrique à 405nm.
A la fin de la période d'incubation, les protéines contenues dans les lysats cellulaires ont été dosés par une méthode spectrocolorimétrique faisant appel au bleu de Coomassie (selon la méthode de Bradford M. Anal. Biochem. 72 (1976) 248-254).
Les résultats sont donnés sous forme de pourcentage de mélanine par rapport aux témoins (moyenne + ou- déviation standard SD) calculés à partir de valeurs obtenues en µg de mélanine intracellulaire par mg de protéines totales du tapis cellulaire.
On a déterminé la significativité statistique des différences constatées entre les conditions des « témoin » et « Produits à l'essai » selon une analyse de variance à un seul facteur (ANOVA) suivi d'un test de Holm-Sidak (* = […] < 0,05)

Question: How did the “dose à partir de laquelle un effet cytotoxique est détectable” value ([1]; human, 4320 min) turn out when `NCCCC(=O)O` [A, acide gamma-aminobutyrique] was run?
Answer: 0.5%

Question: With `O=c1cc(CO)occ1O` [Acide Kojique, acide kojique] as the molecule, how does the activity at 250 µM ([2]; Melanocyte, step 1, Acide Kojique 250 µM in DMSO, mean, * p<0,05, read-out: mélanine / protéines (% du témoin) Moyenne) read?
Answer: 77.4%

Question: What about the activity at 250 µM ([2]; Melanocyte, step 2, Acide kojique 250 µM, mean (controls mean 119,2), * p<0,05, read-out: Mélanines/ protéines (% du témoin) Moyenne) of the same molecule?
Answer: 101%

Question: What about the activity at 250 µM ([2]; Melanocyte, step 2, Acide kojique 250 µM, mean normalised to controls = 100, read-out: % témoin) of the same molecule?
Answer: 84.5%

Question: And the activity at 250 µM ([2]; Melanocyte, step 2, Acide kojique 250 µM, single replicate (controls mean 119,2), read-out: Mélanines/ protéines (% du témoin))?
Answer: 106%

Question: What about the inhibition at 250 µM ([2]; Melanocyte, step 2, acide kojique 250 µM, p < 0.05, read-out: réduction du contenu intracellulaire en mélanine) of the same molecule?
Answer: 15.5%

Question: And the “Mélanines/ protéines (% du témoin)” value ([2]; step 2, Acide kojique 250 µM, single replicate (controls mean 119,2), 4320 min, 250 µM)?
Answer: 93,2 % du témoin and 102,8 % du témoin and 94,1 % du témoin and 97,9 % du témoin

Question: Which “dose à partir de laquelle un effet cytotoxique est détectable” value ([1]; 72 h, detectable = less than 80 % viable cells) does the source give for `CC(O)C(=O)O` (centres unmarked) [Actif E, acide lactique] here?
Answer: 0.03%
